Like-named read-outs stand apart in the source and are kept apart here.
Assays:
[1] = Solubility of compounds and common preservatives in Bio-PDO and PG; format: physicochemical
Text: Cosmetic preservative blends need a broad range of protection against gram positive and negative bacteria, yeasts and molds. In cosmetics, solubility is also important. Clear solutions are preferred to emulsions, suspensions or dispersions. […] Other preservatives or a mixture of preservatives can be used with Bio-PDO™, such as choloracetamide sodium benzoate, 5-bromo-5-nitro-1,3-dioxane, butyl paraben, ethyl paraben, isobutyl paraben, iodopropynyl butylcarbamate, and 2,4,4′-trichloro-2′-[…].

humans [2] = assay: Second human study of irritation or delayed contact hypersensitivity, Bio-PDO vs PG (Example 3); format: in vivo
Text: A second study to determine the potential of biologically-derived 1,3-propanediol and PG, diluted to concentrations of 25%, 50%, and 75% (pH 4, 7 and 9 tested) to cause irritation or delayed contact hypersensitivity in humans.

humans [3] = assay: Human repeated patch test for irritation or delayed contact hypersensitivity (Example 2); format: in vivo; settings: diluted with D.I. water to 5%, 25% and 50%, nine 24-hour induction patches and challenge
Text: The purpose of this study was to determine the potential of biologically-derived 1,3-propanediol, diluted to concentrations of 5%, 25%, and 50%, to cause irritation or delayed contact hypersensitivity in humans. The method employed in carrying out this test, described below, was similar to that described in “Appraisal of the Safety of Chemicals in Foods, Drugs and Cosmetics” by […] and published by the Association of Food and Drug Officials of the United States, the entirety of which is incorporated herein by reference.
Test Panel: The test involved the application of the test article to the upper arms of a group of 112 volunteer panelists. The panelists ranged from 16 to 71 years of age. One hundred and five panelists completed the study. Prior to the initiation of the study, all panelists were in good general health and free of any visible skin disease or anomaly in the area to be patched. Each panelist was required to read, understand and sign an informed consent statement. […]

skin = settings: background statement, Kinnunen et al. 1991; cited from earlier work

CCO [Ethanol]
Solubility in Bio-PDO ™ [1]: Soluble | Solubility in PG [1]: Soluble

OCC(O)CO [Glycerol]
Solubility in Bio-PDO ™ [1]: Soluble | Solubility in PG [1]: Soluble

O=C(O)c1ccccc1O [Salicyclic acid]
Solubility in Bio-PDO ™ ([1]; 10 Wt % in Bio-PDO (Table 2)): Soluble | Solubility in PG ([1]; 10 Wt % in PG (Table 2)): Soluble | Solubility in Bio-PDO ™ ([1]; 15 Wt % in Bio-PDO (Table 2)): Soluble | Solubility in PG ([1]; 15 Wt % in PG (Table 2)): Soluble | Solubility in Bio-PDO ™ ([1]; 20 Wt % in Bio-PDO (Table 2)): Not Soluble | Solubility in PG ([1]; 20 Wt % in PG (Table 2)): Soluble

CC(C)O [IPA]
Solubility in Bio-PDO ™ ([1]; 50 Wt % in Bio-PDO (Table 1)): Soluble | Solubility in PG ([1]; 50 Wt % in PG (Table 1)): Soluble

OCCCCO [1,4-Butanediol]
Solubility in Bio-PDO ™ ([1]; 50 Wt % in Bio-PDO (Table 1)): Soluble | Solubility in PG ([1]; 50 Wt % in PG (Table 1)): Soluble

OCCCO [Bio-PDO™, 1,3-propanediol]
Dermal irritation or sensitization reactions (humans [2]; humans, 25, 50 and 75% at pH 7, or 75% at pH 4 and 9): did not produce any clinically significant dermal irritation or sensitization reactions | Skin irritation, fatiguing or sensitization (humans [3]): not to be a skin irritant, fatiguing agent, or sensitizing agent

CC(O)CO (centres unmarked) [PG, propylene glycol, reference compound]
Dermal irritation (humans [2]; in vivo, pH 7): produced dermal irritation at all three concentrations | Skin irritation and sensitization (skin): is a skin irritant and skin sensitizer

Oc1cc(Cl)ccc1Oc1ccc(Cl)cc1Cl [Irgasan]
Solubility in Bio-PDO ™ ([1]; 20 Wt % in Bio-PDO (Table 2)): Soluble | Solubility in PG ([1]; 20 Wt % in PG (Table 2)): Soluble

Source: US20080176957A1, “PRESERVATIVE COMPOSITIONS COMPRISING RENEWABLY-BASED, BIODEGRADABLE 1,3-PROPANEDIOL” (priority 2006, published 2008)
